# Experimental data reported in PubChem BioAssay (NCI).
#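 Each compound was tested at five concentrations against cells in 96-well plates for 48 hours. The concentration for 50% growth inhibition is given as GI50. TGI: concentration producing complete growth inhibition.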
# Legend:
# Assay in all cases: NCI tumour cell line growth inhibition, 48 h
# [1] = test system: 786-0 renal
# [2] = test system: DU-145 prostate
# [3] = test system: M14 melanoma
# [4] = test system: NCI/ADR-RES ovarian
# [5] = test system: SF-268 CNS
# [6] = test system: CCRF-CEM leukemia
# [7] = test system: MOLT-4 leukemia
# [8] = test system: NCI-H226 lung
# [9] = test system: RPMI-8226 leukemia
# [10] = test system: K-562 leukemia
SMILES,TGI [1] [µM],TGI [2] [µM],TGI [3] [µM],TGI [4] [µM],TGI [5] [µM],TGI [6] [µM],TGI [7] [µM],TGI [8] [µM],TGI [9] [µM],TGI [10] [µM],GI50 [2] [µM],GI50 [3] [µM],GI50 [7] [µM],GI50 [8] [µM],GI50 [4] [µM],GI50 [5] [µM],GI50 [6] [µM],GI50 [10] [µM],GI50 [9] [µM]
O=c1[nH]/c(=C/c2ccc(OCc3ccccc3)cn2)c(=O)[nH]/c1=C/c1cccnc1,> 100,2.08,> 22.8,1.33,> 35,,,,,,,,,,,,,,
C[N+]12C=CC=C1C(N1CCCC1)c1sc(-c3ccc(Cl)cc3)cc12 (stereo not drawn),28.8,32.6,30.9,> 100,34.3,62.8,53.5,35.3,57.7,,,,,,,,,,
CC(C)CCC[C@@H](C)[C@H]1CC[C@H]2[C@@H]3CC=C4CC(OCCCCN(O)CCCSC5OC(CO)C(O)C(O)C5O)CC[C@]4(C)[C@H]3CC[C@]12C (stereo partly drawn),32.5,,56.3,,> 100,72,> 100,,> 100,> 100,,,,,,,,,
CCCCCCCCCCCCCCCCCc1nc(C#N)c(N)o1,> 100,> 100,> 100,,> 100,> 100,> 100,,52,> 100,,,,,,,,,
CCC1OC(=O)C(C)C(OC2CC(C)(O)C(O)C(C)O2)C(C)C(O)C(C)(O)CC(C)C(=O)C(C)C(O)C1C (stereo not drawn),,,,> 300,> 300,> 300,> 300,> 300,> 300,> 300,,,,,,,,,
Cc1ccc(-c2c(C#N)c(O)n(NS(=O)(=O)c3ccccc3)c(=O)c2C#N)cc1,> 100,,> 100,> 100,> 100,> 100,> 100,> 100,,> 100,,,,,,,,,
O=C(c1ccccc1)c1cc(-c2ccccc2)c(-c2ccccc2)[nH]c(=O)c1=O,> 100,,> 100,> 100,> 100,> 100,57.2,> 100,60,> 100,,,,,,,,,
CC1=CC(=O)C[C@]2(C)[C@@H](O)CC(C(C)CO)C[C@@H]12 (stereo partly drawn),> 100,> 100,> 100,> 100,> 100,,> 100,> 100,,,,,,,,,,,
O=C1CSC(c2ccc(Cl)cc2)N1c1ccc(-n2c(-c3ccccc3)nc3ccccc3c2=O)cc1 (stereo not drawn),> 100,,> 100,> 100,> 100,> 100,> 100,> 100,> 100,> 100,,,,,,,,,
CCCCCCc1cc2cc(C(=O)Nc3cccc(C(F)(F)F)c3)c(=N)oc2cc1O,6.27,3.3,6.18,7.42,19.1,,4.19,3.52,> 20.3,,,,,,,,,,
COc1cc2c(oc(=O)c3c4oc([Si](C)(C)C)cc4cc(OC)c23)c2cccc(O)c12,> 100,,> 100,,> 100,> 100,> 100,> 100,> 100,> 100,,,,,,,,,
Cc1cccc2ns[s+]c12,,,> 100,,> 100,> 100,> 100,> 100,> 100,81.4,,,,,,,,,
O=C(N/N=C/c1cc(-c2ccccc2Cl)c(-c2ccccc2Cl)o1)c1ccncc1,> 100,,> 100,,> 100,,,> 100,65.9,,,,,,,,,,
CC(C)(C)OC(=O)NCCNC(=O)OCc1ccccc1,> 100,> 100,> 100,> 100,> 100,,> 100,> 100,> 100,> 100,,,,,,,,,
COCN1C(=O)[C@@H]2C[C@@H](OC/C=C/CBr)CN2C(=O)c2ccccc21,53.9,43.9,42.9,> 100,83.4,> 100,> 100,29.9,,,,,,,,,,,
COc1ccccc1C1C(Cl)C(=O)N1NC(=O)Cc1ccccc1 (stereo not drawn),> 100,,> 100,,> 100,> 100,> 100,> 100,> 100,> 100,,,,,,,,,
COc1ccc2c(c1)CCC1C2CCC2(C)C1CC[C@@]2(O)CNC(=O)/C=C/c1ccc(O)c(O)c1 (stereo partly drawn),,> 100,7.42,5.83,> 100,,2.28,35.3,,,3.11,2.59,0.382,9.76,2.12,2.97,,,
COc1nc(NC2OCC(OC(C)=O)C(OC(C)=O)C2OC(C)=O)c(N=C(C)C(C)=O)c(=O)n1C (stereo not drawn),,,> 100,,> 100,> 100,> 100,> 100,> 100,> 100,,,,,,,,,

SMILES,TGI [1] [µM],TGI [2] [µM],TGI [3] [µM],TGI [4] [µM],TGI [5] [µM],TGI [6] [µM],TGI [7] [µM],TGI [8] [µM],TGI [9] [µM],TGI [10] [µM],GI50 [2] [µM],GI50 [3] [µM],GI50 [7] [µM],GI50 [8] [µM],GI50 [4] [µM],GI50 [5] [µM],GI50 [6] [µM],GI50 [10] [µM],GI50 [9] [µM]
CN1C(=N\S(=O)(=O)c2ccc(Cl)cc2)/C(=N/N=P(c2ccccc2)(c2ccccc2)c2ccccc2)c2ccccc21,,,> 100,,> 100,> 100,> 100,> 100,,> 100,,,,,,,,,
CC(C)(Oc1ccc(C2C[C@H]2Cl)cc1)C(=O)O (stereo partly drawn),> 100,> 100,,,,,> 100,,> 100,> 100,,,,,,,,,
O=S(=O)(CC#CCS(=O)(=O)c1ccccc1)c1ccccc1,2.24,17.4,4.36,> 83,12.5,,> 42.2,34.7,,,,,,,,,,,
O=C(CSCC(=O)N/N=C\c1cc(Br)cc(Br)c1O)N/N=C\c1cc(Br)cc(Br)c1O,> 100,> 100,34.8,> 100,58.2,,74.7,58.2,,80.1,,,,,,,,,
COc1cccc2c(NNc3ccc(Cl)cc3)c3ccc([N+](=O)[O-])cc3nc12,21.2,53.5,41.6,,28.1,15.6,11.5,36.8,> 100,97.2,,,,,,,,,
C[N+](C)(C)CC(=O)N/N=C(\C(=O)Nc1ccc(Cl)cc1)C1C(=O)N(c2ccccc2)N=C1N (stereo not drawn),> 100,,> 100,,> 100,> 100,> 100,,> 100,> 100,,,,,,,,,
O=C(Cl)c1cc([N+](=O)[O-])cc([N+](=O)[O-])c1,> 100,,> 100,,> 100,> 100,> 100,> 100,> 100,> 100,,,,,,,,,
O=C(CCc1nnc2s/c(=C\c3ccc(Cl)cc3Cl)c(=O)n12)Nc1cc(Cl)c(Cl)cc1Cl,,,> 100,,> 100,> 100,> 100,> 100,> 100,> 100,,> 100,> 100,> 100,,> 100,> 100,> 100,> 100
Nc1nc(NC(=O)C2=NS(=O)(=O)c3cc(S(N)(=O)=O)c(Cl)cc3N2)n[nH]1,> 100,,> 100,,> 100,> 100,> 100,> 100,> 100,> 100,,,,,,,,,
C[Si](C)(C)C1=C2C(=O)c3ccccc3C(=O)C2=C([Si](C)(C)C)[C@@H]2CCCC[C@H]12,,> 100,> 100,,,> 100,> 100,,> 100,> 100,,,,,,,,,
N#C/C(=C/NC(=S)Nc1ccc(S(N)(=O)=O)cc1)C(N)=O,> 100,> 100,> 100,,> 100,,> 100,,> 100,,,,,,,,,,
Cc1c2cccc-2c(N(C)C)cc2c1[nH]c1ccccc12,12,28.7,18.9,13.4,16.7,12.8,16.9,21.8,5.73,,,,,,,,,,
CC1=C2CC3=C(C)C(=O)O[C@H]3C[C@@H](C)[C@@H]2CC1,> 100,,> 100,> 100,> 100,> 100,> 100,> 100,> 100,> 100,,,,,,,,,
COc1cccc(C(=O)C(O)c2cccc(OC)c2OC)c1OC (stereo not drawn),> 100,> 100,> 100,> 100,> 100,> 100,> 100,> 100,> 100,,,,,,,,,,
COc1cc(C=Nc2ccc(Oc3ccc(Cl)cc3)c(Cl)c2)cc(OC)c1OC,29.6,38.6,58.2,48.8,30.5,66.4,76,80.9,> 100,,,,,,,,,,
CC(C)(C)C(=O)Cc1cc2c(cc1C(=O)O)S(=O)(=O)NC(C(C)(C)C)=C2,> 100,,> 100,,> 100,> 100,> 100,> 100,> 100,> 100,,,,,,,,,
O=c1n(CCO)nc2n1CCCN2,> 100,> 100,> 100,,> 100,> 100,> 100,> 100,> 100,> 100,,,,,,,,,
